Values after ≈ are worked out from the molar mass of the structure shown. Active and inactive are the calls of the source. No cut-off for these calls is given here.
What was measured:
Staphylococcus aureus [1] = assay: Antibacterial activity against methicillin resistant Staphylococcus aureus MED 2028 osteomyelitis isolate assessed as bacterial count at 4 ug/ml after 4 hrs by time-kill assay; type: functional
Staphylococcus aureus [2] = assay: Antibacterial activity against methicillin resistant Staphylococcus aureus MED 2028 osteomyelitis isolate assessed as bacterial count at 2 ug/ml after 24 hrs by time-kill assay; type: functional
Staphylococcus aureus [3] = assay: Antibacterial activity against methicillin resistant Staphylococcus aureus MED 2028 osteomyelitis isolate assessed as bacterial count at 2 ug/ml after 2 hrs by time-kill assay; type: functional
Streptococcus agalactiae [4] = assay: Antibacterial activity against Streptococcus agalactiae MED 2038 by broth microdilution method; type: functional
Staphylococcus aureus [5] = assay: Antibacterial activity against methicillin resistant Staphylococcus aureus MED 1805 bloodstream isolate by broth microdilution method; type: functional
Staphylococcus aureus [6] = assay: Antibacterial activity against methicillin resistant Staphylococcus aureus MED 2028 osteomyelitis isolate by broth microdilution method; type: functional
Staphylococcus aureus [7] = assay: Antibacterial activity against methicillin resistant Staphylococcus aureus clinical isolate assessed as susceptibility level by broth microdilution method; type: functional
Enterococcus faecium = assay: Antibacterial activity against vancomycin resistant Enterococcus faecium VanB clinical isolate by broth microdilution method; type: functional
Enterococcus faecalis [8] = assay: Antibacterial activity against vancomycin resistant Enterococcus faecalis VanB clinical isolate by broth microdilution method; type: functional
Streptococcus viridans = assay: Antibacterial activity against Streptococcus viridans clinical isolate by broth microdilution method; type: functional
Streptococcus agalactiae [9] = assay: Antibacterial activity against Streptococcus agalactiae group B clinical isolate by broth microdilution method; type: functional
Streptococcus pyogenes [10] = assay: Antibacterial activity against Streptococcus pyogenes group A clinical isolate by broth microdilution method; type: functional
Streptococcus pneumoniae [11] = assay: Antibacterial activity against penicillin intermediate Streptococcus pneumoniae clinical isolate by broth microdilution method; type: functional
[12] = Antibacterial activity against methicillin resistant coagulase-negative Staphylococcus hominis subsp. novobiosepticus clinical isolate by broth microdilution method; type: functional
[13] = tested on: Staphylococcus haemolyticus; assay: Antibacterial activity against methicillin resistant coagulase-negative Staphylococcus haemolyticus clinical isolate by broth microdilution method; type: functional
Streptococcus pyogenes [14] = assay: (§1) Antibacterial activity against Streptococcus pyogenes MED 2040 assessed as bacterial count at […] after 2 hrs by time-kill assay; type: functional
Streptococcus pyogenes [15] = assay: Antibacterial activity against Streptococcus pyogenes MED 2040 assessed as bacterial count at 0.5 ug/ml after 2 hrs by time-kill assay; type: functional
Streptococcus pyogenes [16] = assay: Antibacterial activity against Streptococcus pyogenes MED 2040 assessed as bacterial count at 2 ug/ml after 8 hrs by time-kill assay; type: functional
Enterococcus faecalis [17] = assay: Antibacterial activity against Enterococcus faecalis ATCC 51575 assessed as bacterial count at 2 ug/ml after 2 hrs by time-kill assay; type: functional
Enterococcus faecalis [18] = assay: Antibacterial activity against Enterococcus faecalis ATCC 51575 assessed as bacterial count at 8 ug/ml after 4 hrs by time-kill assay; type: functional
Streptococcus pyogenes [19] = assay: as §1; type: functional; remark: listed apart in the source
Streptococcus agalactiae [20] = assay: Antibacterial activity against Streptococcus agalactiae MED 2038 assessed as bacterial count at 8 ug/ml after 24 hrs by time-kill assay; type: functional
Streptococcus agalactiae [21] = assay: Antibacterial activity against Streptococcus agalactiae MED 2038 assessed as bacterial count at 8 ug/ml after 2 hrs by time-kill assay; type: functional
Streptococcus agalactiae [22] = assay: Antibacterial activity against Streptococcus agalactiae MED 2038 assessed as bacterial count at 2 ug/ml after 2 hrs by time-kill assay; type: functional
Streptococcus agalactiae [23] = assay: Antibacterial activity against Streptococcus agalactiae MED 2038 assessed as bacterial count at 0.5 ug/ml after 8 hrs by time-kill assay; type: functional
Streptococcus agalactiae [24] = assay: Antibacterial activity against Streptococcus agalactiae MED 2038 assessed as bacterial count at 0.5 ug/ml after 2 hrs by time-kill assay; type: functional
Streptococcus agalactiae [25] = assay: Antibacterial activity against Streptococcus agalactiae MED 2038 assessed as bacterial count at […] after 8 hrs by time-kill assay; type: functional
Streptococcus pneumoniae [26] = assay: Antibacterial activity against multidrug resistant Streptococcus pneumoniae MED 1090 assessed as bacterial count at 8 ug/ml after 8 hrs by time-kill assay; type: functional
Streptococcus pneumoniae [27] = assay: Antibacterial activity against multidrug resistant Streptococcus pneumoniae MED 1090 assessed as bacterial count at […] after 24 hrs by time-kill assay; type: functional
Streptococcus pneumoniae [28] = assay: Antibacterial activity against multidrug resistant Streptococcus pneumoniae MED 1090 assessed as bacterial count at […] after 8 hrs by time-kill assay; type: functional
Streptococcus pneumoniae [29] = assay: Antibacterial activity against multidrug resistant Streptococcus pneumoniae MED 1090 assessed as bacterial count at […] after 2 hrs by time-kill assay; type: functional
Streptococcus pneumoniae [30] = assay: Antibacterial activity against multidrug resistant Streptococcus pneumoniae MED 1090 assessed as bacterial count at 0.06 ug/ml after 4 hrs by time-kill assay; type: functional
Streptococcus pneumoniae [31] = assay: Antibacterial activity against multidrug resistant Streptococcus pneumoniae MED 1090 assessed as bacterial count at 0.03 ug/ml after 2 hrs by time-kill assay; type: functional
[32] = tested on: Staphylococcus epidermidis; assay: Antibacterial activity against methicillin resistant Staphylococcus epidermidis ATCC 35984 assessed as bacterial count at 16 ug/ml after 8 hrs by time-kill assay; type: functional
[33] = tested on: Staphylococcus epidermidis; assay: Antibacterial activity against methicillin resistant Staphylococcus epidermidis ATCC 35984 assessed as bacterial count at 8 ug/ml after 24 hrs by time-kill assay; type: functional
[34] = tested on: Staphylococcus epidermidis; assay: Antibacterial activity against methicillin resistant Staphylococcus epidermidis ATCC 35984 assessed as bacterial count at 4 ug/ml after 4 hrs by time-kill assay; type: functional
Staphylococcus aureus [35] = assay: Antibacterial activity against methicillin resistant Staphylococcus aureus MED 1805 bloodstream isolate assessed as bacterial count at 16 ug/ml after 2 hrs by time-kill assay; type: functional
Staphylococcus aureus [36] = assay: Antibacterial activity against methicillin resistant Staphylococcus aureus MED 1805 bloodstream isolate assessed as bacterial count at 4 ug/ml after 8 hrs by time-kill assay; type: functional
Staphylococcus aureus [37] = assay: Antibacterial activity against methicillin resistant Staphylococcus aureus MED 1805 bloodstream isolate assessed as bacterial count at 4 ug/ml after 4 hrs by time-kill assay; type: functional
Staphylococcus aureus [38] = assay: Antibacterial activity against methicillin resistant Staphylococcus aureus MED 1805 bloodstream isolate assessed as bacterial count at 2 ug/ml after 4 hrs by time-kill assay; type: functional
Staphylococcus aureus [39] = assay: Antibacterial activity against methicillin resistant Staphylococcus aureus MED 1805 bloodstream isolate assessed as bacterial count at 1 ug/ml after 2 hrs by time-kill assay; type: functional
Staphylococcus aureus [40] = assay: Antibacterial activity against methicillin resistant Staphylococcus aureus MED 2028 osteomyelitis isolate assessed as bacterial count at 16 ug/ml after 24 hr by time-kill assay; type: functional
Staphylococcus aureus [41] = assay: Antibacterial activity against methicillin resistant Staphylococcus aureus MED 2028 osteomyelitis isolate assessed as bacterial count at 16 ug/ml after 2 hrs by time-kill assay; type: functional
Staphylococcus aureus [42] = assay: Antibacterial activity against methicillin resistant Staphylococcus aureus MED 2028 osteomyelitis isolate assessed as bacterial count at 8 ug/ml after 8 hrs by time-kill assay; type: functional
Enterococcus faecalis [43] = tested on: Enterococcus faecalis

Structure (SMILES): CCCCCCCCCCNCCN[C@@]1(C)C[C@H](O[C@H]2[C@H](Oc3c4cc5cc3Oc3ccc(cc3Cl)[C@@H](O)[C@@H](NC(=O)[C@@H](CC(C)C)NC)C(=O)N[C@@H](CC(N)=O)C(=O)N[C@H]5C(=O)N[C@H]3C(=O)N[C@H](C(=O)N[C@H](C(=O)O)c5cc(O)c(CNCP(=O)(O)O)c(O)c5-c5cc3ccc5O)[C@H](O)c3ccc(c(Cl)c3)O4)O[C@H](CO)[C@@H](O)[C@@H]2O)O[C@@H](C)[C@H]1O [TELAVANCIN]
- log10CFU/ml (Staphylococcus aureus [1]): 1.7
- log10CFU/ml (Staphylococcus aureus [2]): 3.4
- log10CFU/ml (Staphylococcus aureus [3]): 0.6
- MIC (Streptococcus agalactiae [4]): 0.06 µg/mL (≈ 0.0342 µM)
- MIC (Staphylococcus aureus [5]): 0.5 µg/mL (≈ 0.285 µM)
- MIC (Staphylococcus aureus [6]): 0.5 µg/mL (≈ 0.285 µM)
- Activity (Staphylococcus aureus [7]): 100%
- MIC50 (Enterococcus faecium): 0.5 µg/mL (≈ 0.285 µM)
- MIC90 (Enterococcus faecium): 2 µg/mL (≈ 1.14 µM)
- MIC (Enterococcus faecalis [8]): 0.25 µg/mL (≈ 0.142 µM)
- MIC (Streptococcus viridans): 0.015 µg/mL (≈ 0.00854 µM)
- MIC50 (Streptococcus viridans): inactive
- MIC90 (Streptococcus viridans): inactive
- MIC50 (Streptococcus agalactiae [9]): 0.06 µg/mL (≈ 0.0342 µM)
- MIC90 (Streptococcus agalactiae [9]): 0.06 µg/mL (≈ 0.0342 µM)
- MIC50 (Streptococcus pyogenes [10]): 0.03 µg/mL (≈ 0.0171 µM)
- MIC90 (Streptococcus pyogenes [10]): 0.06 µg/mL (≈ 0.0342 µM)
- MIC50 (Streptococcus pneumoniae [11]): 0.015 µg/mL (≈ 0.00854 µM)
- MIC90 (Streptococcus pneumoniae [11]): 0.06 µg/mL (≈ 0.0342 µM)
- MIC50 [12]: 0.5 µg/mL (≈ 0.285 µM)
- MIC90 [12]: 1 µg/mL (≈ 0.57 µM)
- MIC50 [13]: 0.5 µg/mL (≈ 0.285 µM)
- MIC90 [13]: 1 µg/mL (≈ 0.57 µM)
- log10CFU/ml (Streptococcus pyogenes [14]): 0.7
- log10CFU/ml (Streptococcus pyogenes [15]): 0.9
- log10CFU/ml (Streptococcus pyogenes [16]): 3.1
- log10CFU/ml (Enterococcus faecalis [17]): 0.5
- log10CFU/ml (Enterococcus faecalis [18]): 0.2
- log10CFU/ml (Streptococcus pyogenes [19]): 0.4
- log10CFU/ml (Streptococcus agalactiae [20]): 3.7
- log10CFU/ml (Streptococcus agalactiae [21]): 1.1
- log10CFU/ml (Streptococcus agalactiae [22]): 0.8
- log10CFU/ml (Streptococcus agalactiae [23]): 1.6
- log10CFU/ml (Streptococcus agalactiae [24]): 0.87
- log10CFU/ml (Streptococcus agalactiae [25]): 1.6
- log10CFU/ml (Streptococcus pneumoniae [26]): 2.6
- log10CFU/ml (Streptococcus pneumoniae [27]): 3.4
- log10CFU/ml (Streptococcus pneumoniae [28]): 3.3
- log10CFU/ml (Streptococcus pneumoniae [29]): 1.1
- log10CFU/ml (Streptococcus pneumoniae [30]): 2.1
- log10CFU/ml (Streptococcus pneumoniae [31]): 1.1
- log10CFU/ml [32]: 3.3
- log10CFU/ml [33]: 3.3
- log10CFU/ml [34]: 1.8
- log10CFU/ml (Staphylococcus aureus [35]): 0.7
- log10CFU/ml (Staphylococcus aureus [36]): 3
- log10CFU/ml (Staphylococcus aureus [37]): 1.8
- log10CFU/ml (Staphylococcus aureus [38]): 2.8
- log10CFU/ml (Staphylococcus aureus [39]): 0.9
- log10CFU/ml (Staphylococcus aureus [40]): 3.4
- log10CFU/ml (Staphylococcus aureus [41]): 0.3
- log10CFU/ml (Staphylococcus aureus [42]): 3.4
- MIC50 (Enterococcus faecalis [43]): inactive
- MIC90 (Enterococcus faecalis [43]): inactive

Source: ChEMBL document CHEMBL1275440, “In vitro activity of telavancin against resistant gram-positive bacteria” (2008)
